Measurements as given in PubChem BioAssay AID1963849 (Molecular Pharmacology Branch, DTP, NCI, 2024).

System: 299254-011-R-J1-PDC complex spheroid viability
Assay: Anticancer human tumor 299254-011-R-J1-PDC patient-derived melanoma cell line growth inhibition [POLQ]
Conditions: for IC50: curve of first compound; for viability, T/C: stronger effect = lower value
How it was run: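 PDC + HUVEC + MSC complex spheroids; POLQ inhibitors ± partner drugs; top conc. at/near clinical Cmax, else 10 microM (SN-38 1 microM), half-log dilutions; 37 degrees C, 5% CO2.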

[1] = second compound 0.0316 µM, first compound 0.0316 µM
[2] = second compound 0.0316 µM, first compound 0.1 µM
[3] = second compound 0.0316 µM, first compound 0.316 µM
[4] = second compound 0.0316 µM, first compound 1 µM
[5] = second compound 0.0316 µM, first compound 3.16 µM
[6] = second compound 0.0316 µM, first compound 10 µM
[7] = second compound 0.1 µM, first compound 0.0316 µM
[8] = second compound 0.1 µM, first compound 0.1 µM
[9] = second compound 0.1 µM, first compound 0.316 µM
[10] = second compound 0.1 µM, first compound 1 µM
[11] = second compound 0.1 µM, first compound 3.16 µM
[12] = second compound 0.1 µM, first compound 10 µM
[13] = second compound 0.316 µM, first compound 0.0316 µM
[14] = second compound 0.316 µM, first compound 0.1 µM
[15] = second compound 0.316 µM, first compound 0.316 µM
[16] = second compound 0.316 µM, first compound 1 µM
[17] = second compound 0.316 µM, first compound 3.16 µM
[18] = second compound 0.316 µM, first compound 10 µM
[19] = second compound 1 µM, first compound 0.0316 µM
[20] = second compound 1 µM, first compound 0.1 µM
[21] = second compound 1 µM, first compound 0.316 µM
[22] = second compound 1 µM, first compound 1 µM
[23] = second compound 1 µM, first compound 3.16 µM
[24] = second compound 1 µM, first compound 10 µM
[25] = second compound 3.16 µM, first compound 0.0316 µM
[26] = second compound 3.16 µM, first compound 0.1 µM
[27] = second compound 3.16 µM, first compound 0.316 µM
[28] = second compound 3.16 µM, first compound 1 µM
[29] = second compound 3.16 µM, first compound 3.16 µM
[30] = second compound 3.16 µM, first compound 10 µM
[31] = second compound 10 µM, first compound 0.0316 µM
[32] = second compound 10 µM, first compound 0.1 µM
[33] = second compound 10 µM, first compound 0.316 µM
[34] = second compound 10 µM, first compound 1 µM
[35] = second compound 10 µM, first compound 3.16 µM
[36] = second compound 10 µM, first compound 10 µM
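Note: spheroids exposed to drugs for one week before measurement.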
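Throughout, for viability, T/C: percent viability relative to DMSO vehicle control taken as 100%.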

CC1COCCN1c1cc(C2(O)CC3CCC(C2)O3)c2cnn(-c3ccn[nH]3)c2n1 (stereo not drawn) + COC1C(OC(N)=O)C(O)C(Oc2ccc3c(O)c(NC(=O)c4ccc(O)c(CC=C(C)C)c4)c(=O)oc3c2C)OC1(C)C
IC50 (second compound 0.0316 µM): 136 nM | IC50 (second compound 0.1 µM): 182 nM | IC50 (second compound 0.316 µM): 206 nM | IC50 (second compound 1 µM): 163 nM | IC50 (second compound 3.16 µM): 159 nM | IC50 (second compound 10 µM): 176 nM | viability, T/C [1]: 102% | viability, T/C [2]: 53.5% | viability, T/C [3]: 35.8% | viability, T/C [4]: 20.7% | viability, T/C [5]: 14.8% | viability, T/C [6]: 11.1% | viability, T/C [7]: 86.4% | viability, T/C [8]: 64.8% | viability, T/C [9]: 36.6% | viability, T/C [10]: 18.9% | viability, T/C [11]: 16.8% | viability, T/C [12]: 11.5% | viability, T/C [13]: 88.9% | viability, T/C [14]: 75.6% | viability, T/C [15]: 34% | viability, T/C [16]: 20.4% | viability, T/C [17]: 14% | viability, T/C [18]: 11.6% | viability, T/C [19]: 109% | viability, T/C [20]: 56.5% | viability, T/C [21]: 37.4% | viability, T/C [22]: 27.1% | viability, T/C [23]: 15.6% | viability, T/C [24]: 10.2% | viability, T/C [25]: 91.5% | viability, T/C [26]: 61.1% | viability, T/C [27]: 33.1% | viability, T/C [28]: 20.4% | viability, T/C [29]: 13% | viability, T/C [30]: 11.1% | viability, T/C [31]: 87.6% | viability, T/C [32]: 60.5% | viability, T/C [33]: 40.7% | viability, T/C [34]: 17.9% | viability, T/C [35]: 16.6% | viability, T/C [36]: 10.2%

CC(=O)O[C@H]1C(=O)[C@@]2(C)[C@H]([C@H](OC(=O)c3ccccc3)[C@]3(O)C[C@H](OC(=O)[C@H](O)[C@@H](NC(=O)c4ccccc4)c4ccccc4)C(C)=C1C3(C)C)[C@]1(OC(C)=O)CO[C@@H]1C[C@@H]2O + Nc1ccc(C#CCN(C(=O)Cc2ncc(C(F)(F)F)cc2C(F)(F)F)c2ccc(F)cc2)nn1
IC50 (second compound 0.0316 µM): 153 nM | IC50 (second compound 0.1 µM): 85.6 nM | IC50 (second compound 0.316 µM): 109 nM | IC50 (second compound 1 µM): 50.2 nM | IC50 (second compound 3.16 µM): 24.9 nM | IC50 (second compound 10 µM): < 9.49 nM | viability, T/C (second compound 0.0316 µM, first compound 0.00949 µM): 90.2% | viability, T/C (second compound 0.0316 µM, first compound 0.03 µM): 76.6% | viability, T/C (second compound 0.0316 µM, first compound 0.0949 µM): 59.5% | viability, T/C (second compound 0.0316 µM, first compound 0.3 µM): 37.8% | viability, T/C (second compound 0.0316 µM, first compound 0.949 µM): 28.6% | viability, T/C (second compound 0.0316 µM, first compound 3 µM): 24.8% | viability, T/C (second compound 0.1 µM, first compound 0.00949 µM): 103% | viability, T/C (second compound 0.1 µM, first compound 0.03 µM): 78.6% | viability, T/C (second compound 0.1 µM, first compound 0.0949 µM): 43.7% | viability, T/C (second compound 0.1 µM, first compound 0.3 µM): 39.5% | viability, T/C (second compound 0.1 µM, first compound 0.949 µM): 28.4% | viability, T/C (second compound 0.1 µM, first compound 3 µM): 26.9% | viability, T/C (second compound 0.316 µM, first compound 0.00949 µM): 84.2% | viability, T/C (second compound 0.316 µM, first compound 0.03 µM): 85.3% | viability, T/C (second compound 0.316 µM, first compound 0.0949 µM): 52% | viability, T/C (second compound 0.316 µM, first compound 0.3 µM): 32.5% | viability, T/C (second compound 0.316 µM, first compound 0.949 µM): 27.8% | viability, T/C (second compound 0.316 µM, first compound 3 µM): 24.5% | viability, T/C (second compound 1 µM, first compound 0.00949 µM): 80.8% | viability, T/C (second compound 1 µM, first compound 0.03 µM): 58.2% | viability, T/C (second compound 1 µM, first compound 0.0949 µM): 39.2% | viability, T/C (second compound 1 µM, first compound 0.3 µM): 32.3% | viability, T/C (second compound 1 µM, first compound 0.949 µM): 21.7% | viability, T/C (second compound 1 µM, first compound 3 µM): 25.4% | viability, T/C (second compound 3.16 µM, first compound 0.00949 µM): 74.7% | viability, T/C (second compound 3.16 µM, first compound 0.03 µM): 43.5% | viability, T/C (second compound 3.16 µM, first compound 0.0949 µM): 35.5% | viability, T/C (second compound 3.16 µM, first compound 0.3 µM): 25.9% | viability, T/C (second compound 3.16 µM, first compound 0.949 µM): 22.7% | viability, T/C (second compound 3.16 µM, first compound 3 µM): 25.4% | viability, T/C (second compound 10 µM, first compound 0.00949 µM): 47.5% | viability, T/C (second compound 10 µM, first compound 0.03 µM): 36% | viability, T/C (second compound 10 µM, first compound 0.0949 µM): 26.9% | viability, T/C (second compound 10 µM, first compound 0.3 µM): 20.9% | viability, T/C (second compound 10 µM, first compound 0.949 µM): 24.8% | viability, T/C (second compound 10 µM, first compound 3 µM): 23.2%

COc1cc2cc(C(=O)CCC(=O)O)sc2cc1OC + Cc1cccc(N(C)C(=O)C2C(O)CCN2c2nc(C)cc(C(F)(F)F)c2C#N)c1
IC50 (second compound 0.0316 µM): > 10000 nM | IC50 (second compound 0.1 µM): > 10000 nM | IC50 (second compound 0.316 µM): > 10000 nM | IC50 (second compound 1 µM): > 10000 nM | IC50 (second compound 3.16 µM): > 10000 nM | IC50 (second compound 10 µM): > 10000 nM | viability, T/C [1]: 105% | viability, T/C [2]: 102% | viability, T/C [3]: 96.3% | viability, T/C [4]: 113% | viability, T/C [5]: 111% | viability, T/C [6]: 109% | viability, T/C [7]: 98.6% | viability, T/C [8]: 96% | viability, T/C [9]: 104% | viability, T/C [10]: 101% | viability, T/C [11]: 106% | viability, T/C [12]: 101% | viability, T/C [13]: 102% | viability, T/C [14]: 115% | viability, T/C [15]: 99.9% | viability, T/C [16]: 110% | viability, T/C [17]: 113% | viability, T/C [18]: 104% | viability, T/C [19]: 105% | viability, T/C [20]: 109% | viability, T/C [21]: 105% | viability, T/C [22]: 112% | viability, T/C [23]: 110% | viability, T/C [24]: 103% | viability, T/C [25]: 105% | viability, T/C [26]: 116% | viability, T/C [27]: 109% | viability, T/C [28]: 95% | viability, T/C [29]: 96.1% | viability, T/C [30]: 97.4% | viability, T/C [31]: 102% | viability, T/C [32]: 95.5% | viability, T/C [33]: 103% | viability, T/C [34]: 102% | viability, T/C [35]: 102% | viability, T/C [36]: 101%

O=c1[nH]cc(F)c(=O)[nH]1 + COC1C(OC(N)=O)C(O)C(Oc2ccc3c(O)c(NC(=O)c4ccc(O)c(CC=C(C)C)c4)c(=O)oc3c2C)OC1(C)C
IC50 (second compound 0.0316 µM): > 10000 nM | IC50 (second compound 0.1 µM): > 10000 nM | IC50 (second compound 0.316 µM): > 10000 nM | IC50 (second compound 1 µM): > 10000 nM | IC50 (second compound 3.16 µM): > 10000 nM | IC50 (second compound 10 µM): > 10000 nM | viability, T/C [1]: 109% | viability, T/C [2]: 108% | viability, T/C [3]: 122% | viability, T/C [4]: 99.6% | viability, T/C [5]: 94.3% | viability, T/C [6]: 66.8% | viability, T/C [7]: 110% | viability, T/C [8]: 110% | viability, T/C [9]: 114% | viability, T/C [10]: 113% | viability, T/C [11]: 93.7% | viability, T/C [12]: 76.3% | viability, T/C [13]: 109% | viability, T/C [14]: 102% | viability, T/C [15]: 116% | viability, T/C [16]: 101% | viability, T/C [17]: 91.8% | viability, T/C [18]: 79.1% | viability, T/C [19]: 111% | viability, T/C [20]: 115% | viability, T/C [21]: 92.8% | viability, T/C [22]: 110% | viability, T/C [23]: 101% | viability, T/C [24]: 87.7% | viability, T/C [25]: 110% | viability, T/C [26]: 117% | viability, T/C [27]: 128% | viability, T/C [28]: 112% | viability, T/C [29]: 91.3% | viability, T/C [30]: 68.8% | viability, T/C [31]: 130% | viability, T/C [32]: 131% | viability, T/C [33]: 96.2% | viability, T/C [34]: 109% | viability, T/C [35]: 89.9% | viability, T/C [36]: 78.3%
